Four compounds from US11034650B2, “Compounds useful for treating a Mannheimia haemolytica or Histophilus somni infection” (Intervet Inc., priority 2016, dated 2021) can be followed below.

Values after ≈ are worked out from the molar mass of the structure shown. Some results are limits rather than exact numbers.

In one experiment the test system is Mannheimia haemolytica MH 12587 (1071, BRD field isolate, macrolide-resistance: erm+, E+). Description: MIC, broth-microdilution (CLSI VET01-A4), strain MH 12587. It counts as cell-based. Conditions: Mannheimia haemolytica strain MH 12587, broth-microdilution; unit assumed. The method, boiled down:
(§1)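 Growth inhibition is scored visually on a doubling dilution series. The reported MIC corresponds to the lowest concentration free of turbidity, with results assessed under CLSI VET01-S3.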
`CC[C@H](C)[C@H](NC(=O)c1ccc(C#Cc2ccc(CNC)cc2)cc1)C(=O)NO` [Compound 194] had an MIC MH 12587 of 25 µg/mL (≈ 63.5 µM).

On to `CC(C)[C@H](NC(=O)c1ccc(C#Cc2ccc(CNCC(C)(C)C)cc2)cc1)C(=O)NO` [Compound 95], for which the MIC MH 12587 was found to be 6.3 µg/mL (≈ 14.5 µM).

For `CC[C@H](C)[C@H](NC(=O)c1ccc(C#Cc2ccc(CNCc3ccc(N(C)C)cc3)cc2)cc1)C(=O)NO` [Compound 130], the MIC MH 12587 stood at 12.5 µg/mL (≈ 24.4 µM).

As to `COCCN(C)Cc1ccc(C#Cc2ccc(C(=O)N[C@H](C(=O)NO)C(C)C)cc2)cc1` [Compound 203], the MIC MH 12587 is 3.1 µg/mL (≈ 7.09 µM).

The next experiment deals with Mannheimia haemolytica MH 13065 (XB0446-6003.9, BRD field isolate). Put plainly: MIC, broth-microdilution (CLSI VET01-A4), strain MH 13065. It counts as cell-based. Conditions: Mannheimia haemolytica strain MH 13065, broth-microdilution; unit assumed. The method, boiled down:
as §1
In general terms: Dilution methods test growth across graded concentrations, often in twofold steps.
As for `CC[C@H](C)[C@H](NC(=O)c1ccc(C#Cc2ccc(CNC)cc2)cc1)C(=O)NO` [Compound 194], the MIC MH 13065 stood at 6.3 µg/mL (≈ 16 µM).

Take `CC(C)[C@H](NC(=O)c1ccc(C#Cc2ccc(CNCC(C)(C)C)cc2)cc1)C(=O)NO` [Compound 95]: the MIC MH 13065 turned out to be 3.1 µg/mL (≈ 7.12 µM).

The compound `CC[C@H](C)[C@H](NC(=O)c1ccc(C#Cc2ccc(CNCc3ccc(N(C)C)cc3)cc2)cc1)C(=O)NO` [Compound 130] returned an MIC MH 13065 of 6.3 µg/mL (≈ 12.3 µM).

In turn, `COCCN(C)Cc1ccc(C#Cc2ccc(C(=O)N[C@H](C(=O)NO)C(C)C)cc2)cc1` [Compound 203] gave an MIC MH 13065 of 0.8 µg/mL (≈ 1.83 µM).

A further experiment concerns Mannheimia haemolytica MH 13093 (XB0472-6014.1, BRD field isolate). Put plainly: MIC, broth-microdilution (CLSI VET01-A4), strain MH 13093. It counts as cell-based. Conditions: Mannheimia haemolytica strain MH 13093, broth-microdilution; unit assumed. In outline:
as §1
In the case of `CC[C@H](C)[C@H](NC(=O)c1ccc(C#Cc2ccc(CNC)cc2)cc1)C(=O)NO` [Compound 194], the MIC MH 13093 amounted to 12.5 µg/mL (≈ 31.8 µM).

As for `CC(C)[C@H](NC(=O)c1ccc(C#Cc2ccc(CNCC(C)(C)C)cc2)cc1)C(=O)NO` [Compound 95], the MIC MH 13093 turned out to be 3.1 µg/mL (≈ 7.12 µM).

Compound `CC[C@H](C)[C@H](NC(=O)c1ccc(C#Cc2ccc(CNCc3ccc(N(C)C)cc3)cc2)cc1)C(=O)NO` [Compound 130] came in with an MIC MH 13093 of 6.3 µg/mL (≈ 12.3 µM).

Consider `COCCN(C)Cc1ccc(C#Cc2ccc(C(=O)N[C@H](C(=O)NO)C(C)C)cc2)cc1` [Compound 203], for which the MIC MH 13093 was 1.6 µg/mL (≈ 3.66 µM).

In another experiment the test system is Pasteurella multocida PM 6267 (P 2225 (L386), reference strain, mouse infection strain). Put plainly: MIC, broth-microdilution (CLSI VET01-A4), strain PM 6267. Conditions: Pasteurella multocida strain PM 6267, broth-microdilution; unit assumed. It counts as cell-based. The method, boiled down:
as §1
`CC[C@H](C)[C@H](NC(=O)c1ccc(C#Cc2ccc(CNC)cc2)cc1)C(=O)NO` [Compound 194] returned an MIC PM 6267 of 0.4 µg/mL (≈ 1.02 µM).

`CC(C)[C@H](NC(=O)c1ccc(C#Cc2ccc(CNCC(C)(C)C)cc2)cc1)C(=O)NO` [Compound 95] had an MIC PM 6267 of no more than 0.1 µg/mL.

In turn, `CC[C@H](C)[C@H](NC(=O)c1ccc(C#Cc2ccc(CNCc3ccc(N(C)C)cc3)cc2)cc1)C(=O)NO` [Compound 130] showed an MIC PM 6267 of 3.1 µg/mL (≈ 6.05 µM).

Regarding `COCCN(C)Cc1ccc(C#Cc2ccc(C(=O)N[C@H](C(=O)NO)C(C)C)cc2)cc1` [Compound 203], the MIC PM 6267 is no more than 0.1 µg/mL.

The next experiment relates to Pasteurella multocida PM 6391 (ATCC 43137, reference strain). Put plainly: MIC, broth-microdilution (CLSI VET01-A4), strain PM 6391. It is filed as cell-based. Conditions: Pasteurella multocida strain PM 6391, broth-microdilution; unit assumed. On the procedure:
For example, representative compounds were tested against ***, Mannheimia haemolytica and Pasteurella multocida, using the conventional broth-dilution assay.
The Minimum inhibitory concentrations (MIC) of compounds according to the invention for a number of veterinary bacterial pathogens were determined by the broth-microdilution method according to CLSI document VET01-A4.
Microdilution trays containing a doubling dilution series of the test compound were used for the tests. The MIC results were interpreted according to the CLSI documents VET01-S3. The lowest concentration of compound at which no visible growth (i.e. no turbidity) detected by the unaided eye was recorded as the MIC.
In turn, `CC[C@H](C)[C@H](NC(=O)c1ccc(C#Cc2ccc(CNC)cc2)cc1)C(=O)NO` [Compound 194] showed an MIC PM 6391 of 1.6 µg/mL (≈ 4.07 µM).

Another experiment relates to Pasteurella multocida PM 12080 (IV102277-0093, BRD field isolate). Description: MIC, broth-microdilution (CLSI VET01-A4), strain PM 12080. Conditions: Pasteurella multocida strain PM 12080, broth-microdilution; unit assumed. It counts as cell-based. The method, boiled down: as §1
`CC[C@H](C)[C@H](NC(=O)c1ccc(C#Cc2ccc(CNC)cc2)cc1)C(=O)NO` [Compound 194] displayed an MIC PM 12080 of 1.6 µg/mL (≈ 4.07 µM).

On to `CC(C)[C@H](NC(=O)c1ccc(C#Cc2ccc(CNCC(C)(C)C)cc2)cc1)C(=O)NO` [Compound 95], for which the MIC PM 12080 came out at 0.4 µg/mL (≈ 0.918 µM).

`CC[C@H](C)[C@H](NC(=O)c1ccc(C#Cc2ccc(CNCc3ccc(N(C)C)cc3)cc2)cc1)C(=O)NO` [Compound 130] yielded an MIC PM 12080 of 3.1 µg/mL (≈ 6.05 µM).

In turn, `COCCN(C)Cc1ccc(C#Cc2ccc(C(=O)N[C@H](C(=O)NO)C(C)C)cc2)cc1` [Compound 203] had an MIC PM 12080 of no more than 0.1 µg/mL.

The subject of the next experiment is Pasteurella multocida PM 10775 (080130003051, BRD field isolate). Description: MIC, broth-microdilution (CLSI VET01-A4), strain PM 10775. It is filed as cell-based. Conditions: Pasteurella multocida strain PM 10775, broth-microdilution; unit assumed. In outline: as §1
The compound `CC[C@H](C)[C@H](NC(=O)c1ccc(C#Cc2ccc(CNC)cc2)cc1)C(=O)NO` [Compound 194] registered an MIC PM 10775 of no more than 0.1 µg/mL.

For `CC(C)[C@H](NC(=O)c1ccc(C#Cc2ccc(CNCC(C)(C)C)cc2)cc1)C(=O)NO` [Compound 95], the MIC PM 10775 was no more than 0.1 µg/mL.

Regarding `CC[C@H](C)[C@H](NC(=O)c1ccc(C#Cc2ccc(CNCc3ccc(N(C)C)cc3)cc2)cc1)C(=O)NO` [Compound 130], the MIC PM 10775 was found to be 0.4 µg/mL (≈ 0.78 µM).

`COCCN(C)Cc1ccc(C#Cc2ccc(C(=O)N[C@H](C(=O)NO)C(C)C)cc2)cc1` [Compound 203] displayed an MIC PM 10775 of no more than 0.1 µg/mL.

A further experiment has as its system Mannheimia haemolytica MH 10720 (154, BRD field isolate). Put plainly: MIC, broth-microdilution (CLSI VET01-A4), strain MH 10720. It is filed as cell-based. Conditions: Mannheimia haemolytica strain MH 10720, broth-microdilution; unit assumed. In outline: as §1
`CC(C)[C@H](NC(=O)c1ccc(C#Cc2ccc(CNCC(C)(C)C)cc2)cc1)C(=O)NO` [Compound 95] displayed an MIC MH 10720 of 0.8 µg/mL (≈ 1.84 µM).

Compound `CC[C@H](C)[C@H](NC(=O)c1ccc(C#Cc2ccc(CNCc3ccc(N(C)C)cc3)cc2)cc1)C(=O)NO` [Compound 130] registered an MIC MH 10720 of 1.6 µg/mL (≈ 3.12 µM).

In turn, `COCCN(C)Cc1ccc(C#Cc2ccc(C(=O)N[C@H](C(=O)NO)C(C)C)cc2)cc1` [Compound 203] came in with an MIC MH 10720 of 0.2 µg/mL (≈ 0.457 µM).

The test system of the next experiment is Mannheimia haemolytica MH 6374 (ATCC 33396, reference strain). Put plainly: MIC, broth-microdilution (CLSI VET01-A4), strain MH 6374. Conditions: Mannheimia haemolytica strain MH 6374, broth-microdilution; unit assumed. It is filed as cell-based. In outline:
as §1
Consider `CC[C@H](C)[C@H](NC(=O)c1ccc(C#Cc2ccc(CNC)cc2)cc1)C(=O)NO` [Compound 194], for which the MIC MH 6374 worked out at 25 µg/mL (≈ 63.5 µM).

Take `CC(C)[C@H](NC(=O)c1ccc(C#Cc2ccc(CNCC(C)(C)C)cc2)cc1)C(=O)NO` [Compound 95]: the MIC MH 6374 worked out at 3.1 µg/mL (≈ 7.12 µM).

`CC[C@H](C)[C@H](NC(=O)c1ccc(C#Cc2ccc(CNCc3ccc(N(C)C)cc3)cc2)cc1)C(=O)NO` [Compound 130]: the MIC MH 6374 was 3.1 µg/mL (≈ 6.05 µM).

`COCCN(C)Cc1ccc(C#Cc2ccc(C(=O)N[C@H](C(=O)NO)C(C)C)cc2)cc1` [Compound 203]: the MIC MH 6374 was determined as 1.6 µg/mL (≈ 3.66 µM).

Another experiment relates to Mannheimia haemolytica MH 6357 (M7/2, reference strain, cattle infection strain). Put plainly: MIC, broth-microdilution (CLSI VET01-A4), strain MH 6357. It is filed as cell-based. Conditions: Mannheimia haemolytica strain MH 6357, broth-microdilution; unit assumed. In outline: as §1
On to `CC[C@H](C)[C@H](NC(=O)c1ccc(C#Cc2ccc(CNC)cc2)cc1)C(=O)NO` [Compound 194], for which the MIC MH 6357 was 6.3 µg/mL (≈ 16 µM).

Take `CC(C)[C@H](NC(=O)c1ccc(C#Cc2ccc(CNCC(C)(C)C)cc2)cc1)C(=O)NO` [Compound 95]: the MIC MH 6357 was determined as 1.6 µg/mL (≈ 3.67 µM).

Take `CC[C@H](C)[C@H](NC(=O)c1ccc(C#Cc2ccc(CNCc3ccc(N(C)C)cc3)cc2)cc1)C(=O)NO` [Compound 130]: the MIC MH 6357 came out at 3.1 µg/mL (≈ 6.05 µM).

`COCCN(C)Cc1ccc(C#Cc2ccc(C(=O)N[C@H](C(=O)NO)C(C)C)cc2)cc1` [Compound 203] returned an MIC MH 6357 of 1.6 µg/mL (≈ 3.66 µM).
